Calls of active or inactive are those of the source.
What was measured:
[1] = molecular target: Beta-2 adrenergic receptor (Homo sapiens) (UniProt P07550); assay: Displacement of [3H](-)-CGP12177 from human adrenergic beta2 receptor at 10 uM relative to control
[2] = molecular target: 5-hydroxytryptamine receptor 7 (Homo sapiens) (UniProt P34969); assay: Displacement of [3H]LSD from human 5HT7 receptor at 10 uM relative to control
[3] = molecular target: Sodium-dependent noradrenaline transporter (Homo sapiens) (UniProt P23975); assay: Displacement of [3H]nisoxetine from human NE transporter at 10 uM relative to control
[4] = molecular target: Sodium-dependent serotonin transporter (Homo sapiens) (UniProt P31645); assay: Displacement of [3H]imipramine from human 5HT transporter at 10 uM relative to control
[5] = molecular target: 5-hydroxytryptamine receptor 5A (Homo sapiens) (UniProt P47898); assay: Displacement of [3H]LSD from human 5HT5A receptor at 10 uM relative to control
[6] = molecular target: Sodium-dependent dopamine transporter (Homo sapiens) (UniProt Q01959); assay: Displacement of [3H]BTCP from human DA transporter at 10 uM relative to control
[7] = molecular target: D(2) dopamine receptor (Homo sapiens) (UniProt P14416); assay: Displacement of [3H]methyl-spiperone from human dopamine D2s receptor at 10 uM relative to control
[8] = molecular target: Melatonin receptor type 1A (Homo sapiens) (UniProt P48039); assay: Displacement of [125I]2-iodomelatonin from human MT1 receptor at 10 uM relative to control
[9] = molecular target: 5-hydroxytryptamine receptor 2B (Homo sapiens) (UniProt P41595); assay: Displacement of [125I](+/-)-DOI from human 5HT2B receptor at 10 uM relative to control
P815B = assay: Antitumor activity against mouse P815B cells expressing TDO xenografted in immunized mouse assessed as tumor growth inhibition at 160 mg/kg/day, po administered with water; assay type: functional, organism-based
[10] = molecular target: 5-hydroxytryptamine receptor 1B (Homo sapiens) (UniProt P28222); assay: Displacement of [125I]CYP from human 5HT1B receptor at 10 uM relative to control
[11] = molecular target: D(1A) dopamine receptor (Homo sapiens) (UniProt P21728); assay: Displacement of [3H]SCH23390 from human dopamine D1 receptor at 10 uM relative to control
[12] = molecular target: T1, 5-hydroxytryptamine receptor 1A (Homo sapiens) (UniProt P08908); assay: Displacement of [3H]8-OH-DPAT from human 5HT1A receptor at 10 uM relative to control
T1 sequence (whole entry): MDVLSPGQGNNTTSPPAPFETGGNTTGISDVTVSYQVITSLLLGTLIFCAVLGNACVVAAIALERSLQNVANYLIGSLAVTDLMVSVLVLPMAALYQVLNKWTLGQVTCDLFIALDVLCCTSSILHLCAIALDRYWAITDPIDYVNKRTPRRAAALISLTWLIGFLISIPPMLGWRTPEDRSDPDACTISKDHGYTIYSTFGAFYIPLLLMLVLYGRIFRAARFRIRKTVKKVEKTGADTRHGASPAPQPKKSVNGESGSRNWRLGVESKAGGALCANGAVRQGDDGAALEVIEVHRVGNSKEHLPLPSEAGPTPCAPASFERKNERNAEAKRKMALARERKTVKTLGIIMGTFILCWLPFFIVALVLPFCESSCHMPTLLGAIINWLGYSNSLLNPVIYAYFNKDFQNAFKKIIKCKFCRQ

[13] = Displacement of [3H]prazosin from adrenergic alpha1 receptor at 10 uM relative to control
[14] = molecular target: 5-hydroxytryptamine receptor 6 (Homo sapiens) (UniProt P50406); assay: Displacement of [3H]LSD from human 5HT6 receptor at 10 uM relative to control
[15] = molecular target: Indoleamine 2,3-dioxygenase 1 (Homo sapiens) (UniProt P14902); assay: Inhibition of IDO at 10 uM
[16] = molecular target: T2, 5-hydroxytryptamine receptor 3A (Homo sapiens) (UniProt P46098); assay: Displacement of [3H]BRL43694 from human 5HT3 receptor at 10 uM relative to control
T2 sequence (whole entry): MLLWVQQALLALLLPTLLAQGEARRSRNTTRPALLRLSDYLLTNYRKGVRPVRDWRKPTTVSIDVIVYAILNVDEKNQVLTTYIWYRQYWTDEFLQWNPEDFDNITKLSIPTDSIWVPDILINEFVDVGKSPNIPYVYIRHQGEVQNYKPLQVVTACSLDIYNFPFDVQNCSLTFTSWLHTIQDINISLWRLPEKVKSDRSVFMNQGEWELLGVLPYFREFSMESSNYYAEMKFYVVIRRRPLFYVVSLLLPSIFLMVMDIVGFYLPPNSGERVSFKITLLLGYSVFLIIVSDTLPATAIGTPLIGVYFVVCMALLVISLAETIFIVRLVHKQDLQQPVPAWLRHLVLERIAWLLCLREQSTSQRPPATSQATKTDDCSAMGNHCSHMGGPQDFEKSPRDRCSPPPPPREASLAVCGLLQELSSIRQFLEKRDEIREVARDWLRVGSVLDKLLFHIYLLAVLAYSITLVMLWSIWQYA

[17] = molecular target: Beta-1 adrenergic receptor (Homo sapiens) (UniProt P08588); assay: Displacement of [3H](-)-CGP12177 from human adrenergic beta1 receptor at 10 uM relative to control
[18] = Displacement of [3H]RX821002 from adrenergic alpha2 receptor at 10 uM relative to control
[19] = molecular target: 5-hydroxytryptamine receptor 2A (Homo sapiens) (UniProt P28223); assay: Displacement of [3H]ketanserin from human 5HT2A receptor at 10 uM relative to control
5-hydroxytryptamine receptor 2A (Homo sapiens), sequence (P28223 whole entry): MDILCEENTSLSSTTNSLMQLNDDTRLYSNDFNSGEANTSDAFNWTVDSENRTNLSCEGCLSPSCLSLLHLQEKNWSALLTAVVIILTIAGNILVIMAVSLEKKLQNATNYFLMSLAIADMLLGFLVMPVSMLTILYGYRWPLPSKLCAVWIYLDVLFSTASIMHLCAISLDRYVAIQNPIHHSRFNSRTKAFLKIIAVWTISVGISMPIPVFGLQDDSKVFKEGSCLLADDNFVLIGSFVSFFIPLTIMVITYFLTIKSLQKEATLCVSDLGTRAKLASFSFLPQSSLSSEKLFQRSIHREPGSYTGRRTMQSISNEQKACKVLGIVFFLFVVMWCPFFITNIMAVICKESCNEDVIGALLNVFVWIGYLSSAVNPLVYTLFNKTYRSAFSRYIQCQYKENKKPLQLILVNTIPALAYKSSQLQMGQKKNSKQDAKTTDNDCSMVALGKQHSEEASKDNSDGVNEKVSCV

D(2) dopamine receptor (Homo sapiens), sequence (P14416 whole entry): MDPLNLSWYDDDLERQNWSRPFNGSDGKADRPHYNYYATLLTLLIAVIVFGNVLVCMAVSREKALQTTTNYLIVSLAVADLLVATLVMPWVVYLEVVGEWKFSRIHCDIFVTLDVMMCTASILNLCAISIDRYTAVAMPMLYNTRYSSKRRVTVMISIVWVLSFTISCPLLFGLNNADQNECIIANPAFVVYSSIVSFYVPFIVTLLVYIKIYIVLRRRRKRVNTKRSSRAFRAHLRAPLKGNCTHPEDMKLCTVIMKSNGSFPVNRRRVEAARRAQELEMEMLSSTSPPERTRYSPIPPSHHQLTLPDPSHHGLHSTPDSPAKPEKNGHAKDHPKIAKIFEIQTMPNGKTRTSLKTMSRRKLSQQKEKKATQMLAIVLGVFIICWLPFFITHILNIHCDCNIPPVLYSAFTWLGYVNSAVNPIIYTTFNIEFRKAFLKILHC
Beta-1 adrenergic receptor (Homo sapiens), sequence (P08588 whole entry, looked up): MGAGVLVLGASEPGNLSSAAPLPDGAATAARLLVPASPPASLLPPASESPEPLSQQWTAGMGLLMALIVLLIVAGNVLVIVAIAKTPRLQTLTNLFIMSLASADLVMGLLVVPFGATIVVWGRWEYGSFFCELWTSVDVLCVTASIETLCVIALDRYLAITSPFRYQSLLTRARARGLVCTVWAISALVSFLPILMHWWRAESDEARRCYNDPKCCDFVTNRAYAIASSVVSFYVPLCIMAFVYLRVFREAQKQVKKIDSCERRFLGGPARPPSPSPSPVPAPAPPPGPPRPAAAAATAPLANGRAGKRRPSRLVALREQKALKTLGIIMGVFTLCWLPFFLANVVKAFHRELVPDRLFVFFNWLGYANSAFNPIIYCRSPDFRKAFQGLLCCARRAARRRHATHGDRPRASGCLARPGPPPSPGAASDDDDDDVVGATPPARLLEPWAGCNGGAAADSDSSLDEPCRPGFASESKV
5-hydroxytryptamine receptor 5A (Homo sapiens), sequence (P47898 whole entry): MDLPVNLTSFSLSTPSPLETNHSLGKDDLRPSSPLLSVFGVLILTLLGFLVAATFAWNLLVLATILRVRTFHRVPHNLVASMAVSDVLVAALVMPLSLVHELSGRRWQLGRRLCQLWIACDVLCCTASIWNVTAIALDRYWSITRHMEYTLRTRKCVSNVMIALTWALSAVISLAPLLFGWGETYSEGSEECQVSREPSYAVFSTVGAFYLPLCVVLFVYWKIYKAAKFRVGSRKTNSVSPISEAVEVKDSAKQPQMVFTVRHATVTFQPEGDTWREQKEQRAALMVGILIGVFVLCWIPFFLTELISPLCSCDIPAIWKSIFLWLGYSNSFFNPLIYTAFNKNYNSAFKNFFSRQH
5-hydroxytryptamine receptor 1B (Homo sapiens), sequence (P28222 whole entry): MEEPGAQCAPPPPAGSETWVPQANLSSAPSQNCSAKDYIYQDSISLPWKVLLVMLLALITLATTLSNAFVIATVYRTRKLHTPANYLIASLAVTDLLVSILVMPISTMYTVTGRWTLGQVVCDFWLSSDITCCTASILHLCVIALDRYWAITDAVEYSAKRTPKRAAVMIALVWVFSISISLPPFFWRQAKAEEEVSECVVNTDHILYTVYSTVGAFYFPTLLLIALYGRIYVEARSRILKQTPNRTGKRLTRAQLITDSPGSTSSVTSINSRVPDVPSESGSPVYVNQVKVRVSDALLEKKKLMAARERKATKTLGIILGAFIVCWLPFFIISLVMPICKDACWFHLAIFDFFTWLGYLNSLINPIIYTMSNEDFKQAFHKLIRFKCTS
5-hydroxytryptamine receptor 6 (Homo sapiens), sequence (P50406 whole entry): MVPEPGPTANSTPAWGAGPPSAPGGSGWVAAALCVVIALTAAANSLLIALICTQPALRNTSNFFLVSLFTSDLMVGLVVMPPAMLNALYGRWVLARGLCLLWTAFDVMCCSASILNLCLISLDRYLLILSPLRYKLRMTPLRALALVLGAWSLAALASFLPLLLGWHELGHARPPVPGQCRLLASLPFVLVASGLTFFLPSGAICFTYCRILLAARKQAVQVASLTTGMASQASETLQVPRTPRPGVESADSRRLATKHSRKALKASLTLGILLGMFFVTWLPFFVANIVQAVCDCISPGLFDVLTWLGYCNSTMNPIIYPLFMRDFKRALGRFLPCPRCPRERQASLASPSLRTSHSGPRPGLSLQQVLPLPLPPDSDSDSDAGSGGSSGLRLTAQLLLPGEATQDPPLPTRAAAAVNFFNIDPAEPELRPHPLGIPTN
Sodium-dependent serotonin transporter (Homo sapiens), sequence (P31645 whole entry, looked up): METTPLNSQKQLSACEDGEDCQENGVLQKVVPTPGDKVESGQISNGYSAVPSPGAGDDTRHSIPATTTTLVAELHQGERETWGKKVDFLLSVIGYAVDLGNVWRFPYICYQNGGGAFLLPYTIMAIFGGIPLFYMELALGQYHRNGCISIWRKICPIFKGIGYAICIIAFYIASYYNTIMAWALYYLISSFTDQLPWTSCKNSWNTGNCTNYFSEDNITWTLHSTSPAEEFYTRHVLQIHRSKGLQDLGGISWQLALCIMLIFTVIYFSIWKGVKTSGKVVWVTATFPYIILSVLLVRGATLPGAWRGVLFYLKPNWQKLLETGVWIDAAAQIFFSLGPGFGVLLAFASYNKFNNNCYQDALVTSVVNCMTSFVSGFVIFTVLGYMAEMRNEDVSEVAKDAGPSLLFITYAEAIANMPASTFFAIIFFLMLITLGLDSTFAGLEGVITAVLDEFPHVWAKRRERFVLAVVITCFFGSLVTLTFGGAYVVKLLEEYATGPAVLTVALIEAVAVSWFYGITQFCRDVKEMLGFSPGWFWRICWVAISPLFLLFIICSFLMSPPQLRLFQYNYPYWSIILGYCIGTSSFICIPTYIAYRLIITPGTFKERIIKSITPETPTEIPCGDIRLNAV
Sodium-dependent dopamine transporter (Homo sapiens), sequence (Q01959 whole entry): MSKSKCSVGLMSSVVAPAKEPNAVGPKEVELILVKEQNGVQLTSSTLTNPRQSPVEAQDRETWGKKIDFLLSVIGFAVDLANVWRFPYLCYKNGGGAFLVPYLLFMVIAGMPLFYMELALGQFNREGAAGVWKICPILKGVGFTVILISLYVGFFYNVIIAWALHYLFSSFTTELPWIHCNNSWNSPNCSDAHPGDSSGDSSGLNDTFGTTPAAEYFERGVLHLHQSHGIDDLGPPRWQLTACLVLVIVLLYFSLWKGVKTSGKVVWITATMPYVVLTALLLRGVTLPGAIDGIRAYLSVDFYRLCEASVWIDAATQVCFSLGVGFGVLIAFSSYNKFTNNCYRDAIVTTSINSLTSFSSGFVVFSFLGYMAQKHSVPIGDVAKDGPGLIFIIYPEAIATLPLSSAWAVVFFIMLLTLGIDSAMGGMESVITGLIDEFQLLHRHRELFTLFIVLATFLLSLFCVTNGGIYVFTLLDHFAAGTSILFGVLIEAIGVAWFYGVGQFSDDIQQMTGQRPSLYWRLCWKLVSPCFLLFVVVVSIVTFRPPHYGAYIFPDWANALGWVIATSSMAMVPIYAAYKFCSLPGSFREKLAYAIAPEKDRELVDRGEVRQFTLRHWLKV
Beta-2 adrenergic receptor (Homo sapiens), sequence (P07550 whole entry, looked up): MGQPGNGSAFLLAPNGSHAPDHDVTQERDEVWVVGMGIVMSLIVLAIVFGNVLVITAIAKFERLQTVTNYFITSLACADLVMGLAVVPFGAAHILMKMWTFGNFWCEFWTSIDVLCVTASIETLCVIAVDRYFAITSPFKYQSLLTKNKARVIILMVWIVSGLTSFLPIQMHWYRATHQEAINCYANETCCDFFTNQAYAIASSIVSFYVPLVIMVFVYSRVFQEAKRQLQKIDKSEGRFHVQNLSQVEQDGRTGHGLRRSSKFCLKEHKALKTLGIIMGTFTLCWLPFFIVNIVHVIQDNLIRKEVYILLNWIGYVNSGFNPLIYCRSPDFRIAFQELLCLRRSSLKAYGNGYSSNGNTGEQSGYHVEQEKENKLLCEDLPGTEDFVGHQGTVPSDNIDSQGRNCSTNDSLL
Sodium-dependent noradrenaline transporter (Homo sapiens), sequence (P23975 whole entry): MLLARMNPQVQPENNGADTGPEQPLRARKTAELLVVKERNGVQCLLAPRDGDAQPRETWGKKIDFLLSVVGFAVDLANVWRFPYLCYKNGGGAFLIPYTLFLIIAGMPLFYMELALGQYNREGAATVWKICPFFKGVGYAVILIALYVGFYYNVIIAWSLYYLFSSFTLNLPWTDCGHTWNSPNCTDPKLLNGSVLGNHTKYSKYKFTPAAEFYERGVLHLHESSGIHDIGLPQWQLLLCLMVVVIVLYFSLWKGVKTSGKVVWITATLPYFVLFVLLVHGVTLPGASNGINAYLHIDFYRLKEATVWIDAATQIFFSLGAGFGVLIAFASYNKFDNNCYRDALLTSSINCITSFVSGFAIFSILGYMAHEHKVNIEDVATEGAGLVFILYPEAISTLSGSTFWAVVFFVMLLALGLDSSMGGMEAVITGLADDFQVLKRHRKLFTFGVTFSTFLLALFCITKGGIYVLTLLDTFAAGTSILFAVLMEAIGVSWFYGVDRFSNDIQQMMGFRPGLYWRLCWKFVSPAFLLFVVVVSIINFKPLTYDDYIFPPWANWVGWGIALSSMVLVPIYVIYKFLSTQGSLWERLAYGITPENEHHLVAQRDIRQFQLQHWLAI

Fc1ccc2c(/C=C/c3nnn[nH]3)c[nH]c2c1
< 10%: inhibition [1] | inhibition [2] | inhibition [3] | inhibition [5] | inhibition [6] | inhibition [7] | inhibition [8] | inhibition [9] | inhibition [10] | inhibition [11] | inhibition [12] | inhibition [13] | inhibition [14] | inhibition [15] | inhibition [16] | inhibition [18] | inhibition [19]
26%: inhibition [4]
active: Activity (P815B)
14%: inhibition [17]

From ChEMBL document CHEMBL1811872, “Tryptophan 2,3-dioxygenase (TDO) inhibitors. 3-(2-(pyridyl)ethenyl)indoles as potential anticancer immunomodulators” (J Med Chem, 2011)
